Results from patent US9278950B2, “Bicyclic aromatic carboxamide compounds useful as Pim kinase inhibitors” (Incyte Corporation, priority 2013, dated 2016).

Legend:
Format in all cases: biochemical
Pim-3 = target: T1, Pim-3 (Homo sapiens, UniProt Q86V86); assay: Pim-3 kinase assay (Pim enzyme assays, Example A); conditions: 1 mM ATP; read-out: Pim3 IC50
T1 construct: purchased Millipore 14-738
Protocol: (§1) Pim-1 and Pim-3 kinase assays-20 μL reactions were run in white 384 well polystyrene plates dotted with 0.8 μL compound/DMSO in the assay buffer (50 mM Tris, pH 7.5, 0.01% Tween-20, 5 mM mgCl2, 0.01% BSA, 5 mM DTT), containing 0.05 μM Biotin-labeled BAD peptide substrate (AnaSpec 62269), 1 mM ATP, and […] (Pim-1, Invitrogen PV3503) or […] (Pim-3, Millipore 14-738) enzyme for 1 h at 25° C. Reactions were stopped by addition of 10 μL STOP Buffer (150 mM Tris, pH=7.5, 150 mM NaCl, 75 mM EDTA, 0.01% Tween-20, 0.3% BSA,) supplemented with Phospho-Bad (Ser 12) Antibody (Cell Signaling 9291) diluted 666-fold, and Streptavidin donor beads (PerkinElmer 6760002) along with Protein-A acceptor beads (PerkinElmer 6760137) at 15 μg/mL each. Supplementation of the STOP buffer with beads and stopping the reactions were done under reduced light. Prior to the stopping reactions STOP buffer with beads was preincubated for 1 h in the dark at room temperature. After stopping the reactions, plates were incubated for 1 h in the dark at room temperature before reading on a PHERAstar FS plate reader (BMG Labtech) under reduced light.

Pim-1 = target: T2, Pim-1 (Homo sapiens, UniProt P11309); assay: Pim-1 kinase assay (Pim enzyme assays, Example A); conditions: 1 mM ATP; read-out: Pim1 IC50
T2 construct: purchased Invitrogen PV3503
Protocol: as §1

Pim2 = target: T3, Pim2 (Homo sapiens, UniProt Q9P1W9); assay: Pim-2 kinase assay (Pim enzyme assays, Example A); conditions: 1 mM ATP; read-out: Pim2 IC50
T3 construct: purchased Invitrogen PV3649
Protocol: Pim-2 kinase assay—20 μL reactions were run in white 384 well polystyrene plates dotted with 0.8 μL compound/DMSO in the assay buffer (50 mM Tris, pH 7.5, 0.01% Tween-20, 5 mM mgCl2, 0.01% BSA, 5 mM DTT), containing 0.05 μM Fluorescein-labeled CREBtide peptide substrate (Invitrogen PV3508), 1 mM ATP, and 1 nM enzyme (Invitrogen PV3649) for 2 h at 25° C. Reactions were stopped by addition of 10 μL TR-FRET Dilution Buffer (Invitrogen PV3574) with 30 mM EDTA and 1.5 nM LanthaScreen Tb-CREB pSer133 antibody (Invitrogen PV3566). After 30 min. incubation at room temperature, plates were read on a PHERAstar FS plate reader (BMG Labtech).

T2 sequence (P11309 whole entry): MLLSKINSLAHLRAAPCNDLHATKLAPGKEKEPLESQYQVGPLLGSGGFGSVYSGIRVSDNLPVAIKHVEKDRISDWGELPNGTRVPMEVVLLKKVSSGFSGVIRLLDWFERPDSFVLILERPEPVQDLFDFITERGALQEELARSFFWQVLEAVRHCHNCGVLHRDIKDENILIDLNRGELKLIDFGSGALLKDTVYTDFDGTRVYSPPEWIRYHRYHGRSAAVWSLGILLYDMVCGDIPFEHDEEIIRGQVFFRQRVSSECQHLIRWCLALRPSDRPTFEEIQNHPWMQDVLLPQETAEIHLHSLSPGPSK
T3 sequence (Q9P1W9 whole entry): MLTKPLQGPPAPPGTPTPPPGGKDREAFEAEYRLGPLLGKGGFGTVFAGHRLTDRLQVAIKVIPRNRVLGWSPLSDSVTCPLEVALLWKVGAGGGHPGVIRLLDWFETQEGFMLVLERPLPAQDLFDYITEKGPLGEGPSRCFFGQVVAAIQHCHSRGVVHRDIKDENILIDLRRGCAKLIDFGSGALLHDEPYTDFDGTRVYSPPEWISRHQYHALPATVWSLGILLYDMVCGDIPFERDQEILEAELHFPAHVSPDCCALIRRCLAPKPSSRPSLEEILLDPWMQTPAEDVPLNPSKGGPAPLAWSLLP

Row | Compound | IC50 (Pim-3) | IC50 (Pim-1) | IC50 (Pim2)
1 | Nc1cc2ccc(C3CCOCC3)cc2nc1C(=O)Nc1cnccc1N1C[C@@H](N)C[C@@H](C(F)(F)F)C1 [Example 39, 3-Amino-N-{4-[(3S,5R)-3-amino-5-(trifluoromethyl)piperidin-1-yl]pyridin-3-yl}-7-(tetrahydro-2H-pyran-4-yl)quinoline-2-carboxamide] | ≤ 0.1 µM | ≤ 0.1 µM | ≤ 0.1 µM
2 | C[C@@H]1C[C@H](N)CN(c2ccncc2NC(=O)c2nc3cc(C4CCOCC4)ccc3cc2N)C1 [Example 40, 3-Amino-N-{4-[(3S,5R)-3-amino-5-methylpiperidin-1-yl]pyridin-3-yl}-7-(tetrahydro-2H-pyran-4-yl)quinoline-2-carboxamide] | ≤ 0.1 µM | ≤ 0.1 µM | ≤ 0.1 µM
3 | C[C@H]1CN(c2ccncc2NC(=O)c2nc3cc(C4CCOCC4)ccc3cc2N)C[C@@H](N)[C@@H]1O [Example 41, 3-Amino-N-{4-[(3R,4R,5S)-3-amino-4-hydroxy-5-methylpiperidin-1-yl]pyridin-3-yl}-7-(tetrahydro-2H-pyran-4-yl)quinoline-2-carboxamide] | ≤ 0.1 µM | ≤ 0.1 µM | ≤ 0.1 µM
4 | C[C@H]1CN(c2ccncc2NC(=O)c2nc3cc(C4CCN(C)CC4)ccc3cc2N)C[C@@H](N)[C@@H]1O [Example 42, 3-Amino-N-{4-[(3R,4R,5S)-3-amino-4-hydroxy-5-methylpiperidin-1-yl]pyridin-3-yl}-7-(1-methylpiperidin-4-yl)quinoline-2-carboxamide] | ≤ 0.1 µM | ≤ 0.1 µM | ≤ 0.1 µM
5 | C[C@@H]1C[C@H](N)CN(c2ccncc2NC(=O)c2nc3cc(C4CCN(C)CC4)ccc3cc2N)C1 [Example 43, 3-Amino-N-{4-[(3S,5R)-3-amino-5-methylpiperidin-1-yl]pyridin-3-yl}-7-(1-methylpiperidin-4-yl)quinoline-2-carboxamide] | ≤ 0.1 µM | ≤ 0.1 µM | ≤ 0.1 µM
6 | CN1CCC(c2ccc3cc(N)c(C(=O)Nc4cnccc4N4C[C@@H](N)C[C@@H](C(F)(F)F)C4)nc3c2)CC1 [Example 44, 3-Amino-N-{4-[(3S,5R)-3-amino-5-(trifluoromethyl)piperidin-1-yl]pyridin-3-yl}-7-(1-methylpiperidin-4-yl)quinoline-2-carboxamide] | ≤ 0.1 µM | ≤ 0.1 µM | ≤ 0.1 µM
7 | C[C@@H]1C[C@H](N)CN(c2ccncc2NC(=O)c2nc3cc(N4CCCCC4=O)ccc3cc2N)C1 [Example 45, 3-Amino-N-{4-[(3S,5R)-3-amino-5-methylpiperidin-1-yl]pyridin-3-yl}-7-(2-oxopiperidin-1-yl)quinoline-2-carboxamide] | ≤ 0.1 µM | ≤ 0.1 µM | 0.1 to 1 µM
8 | C[C@@H]1C[C@H](N)CN(c2ccncc2NC(=O)c2nc3cc(N4CCN(C)C(=O)C4)ccc3cc2N)C1 [Example 46, 3-Amino-N-{4-[(3S,5R)-3-amino-5-methylpiperidin-1-yl]pyridin-3-yl}-7-(4-methyl-3-oxopiperazin-1-yl)quinoline-2-carboxamide] | ≤ 0.1 µM | ≤ 0.1 µM | 0.1 to 1 µM
9 | C[C@@H]1C[C@H](N)CN(c2ccncc2NC(=O)c2nc3cc(N4CCNC(=O)C4)ccc3cc2N)C1 [Example 47, 3-Amino-N-{4-[(3S,5R)-3-amino-5-methylpiperidin-1-yl]pyridin-3-yl}-7-(3-oxopiperazin-1-yl)quinoline-2-carboxamide] | ≤ 0.1 µM | ≤ 0.1 µM | 0.1 to 1 µM

Now from value to compound:

Row | IC50 (Pim-3) | IC50 (Pim-1) | IC50 (Pim2) | Compound
10 | ≤ 0.1 µM | ≤ 0.1 µM | 0.1 to 1 µM | Nc1cc2ccc(CN3CCOCC3)cc2nc1C(=O)Nc1cnccc1N1CCC[C@H](N)C1 [Example 21, 3-Amino-N-{4-[(3S)-3-aminopiperidin-1-yl]pyridin-3-yl}-7-(morpholin-4-ylmethyl)quinoline-2-carboxamide]
11 | ≤ 0.1 µM | ≤ 0.1 µM | 0.1 to 1 µM | CCc1ccc2cc(N)c(C(=O)Nc3cnccc3C3CCCC(N)C3)nc2c1 (stereo not drawn) [Example 23, 3-Amino-N-[4-(3-aminocyclohexyl)pyridin-3-yl]-7-ethylquinoline-2-carboxamide]
12 | ≤ 0.1 µM | ≤ 0.1 µM | 0.1 to 1 µM | CCc1ccc2cc(N)c(C(=O)Nc3cnc4c(c3N3CCC[C@H](N)C3)CCO4)nc2c1 [Example 24, (S)-3-Amino-N-(4-(3-aminopiperidin-1-yl)-2,3-dihydrofuro[2,3-b]pyridin-5-yl)-7-ethylquinoline-2-carboxamide]
13 | ≤ 0.1 µM | ≤ 0.1 µM | ≤ 0.1 µM | CCc1ccc2cc(N)c(C(=O)Nc3cncc(C)c3N3C[C@@H](N)[C@H](O)[C@@H](C)C3)nc2c1 [Example 28, 3-Amino-N-{4-[(3R,4R,5S)-3-amino-4-hydroxy-5-methylpiperidin-1-yl]-5-methylpyridin-3-yl}-7-ethylquinoline-2-carboxamide]
14 | ≤ 0.1 µM | ≤ 0.1 µM | ≤ 0.1 µM | CCc1ccc2cc(N)c(C(=O)Nc3cnccc3N3C[C@@H](N)[C@H](O)[C@@H](C)C3)nc2c1 [Example 29, 3-Amino-N-{4-[(3R,4R,5S)-3-amino-4-hydroxy-5-methylpiperidin-1-yl]pyridin-3-yl}-7-ethylquinoline-2-carboxamide]
15 | ≤ 0.1 µM | ≤ 0.1 µM | ≤ 0.1 µM | CCc1ccc2cc(N)c(C(=O)Nc3cncc(C)c3N3CCC[C@H](N)C3)nc2c1 [Example 30, 3-Amino-N-{4-[(3S)-3-aminopiperidin-1-yl]-5-methylpyridin-3-yl}-7-ethylquinoline-2-carboxamide]
16 | ≤ 0.1 µM | > 0.04 µM | > 2 µM | CCc1ccc2cc(N)c(C(=O)Nc3cnc(OC)cc3N3CCC[C@H](N)C3)nc2c1 [Example 31, 3-Amino-N-{4-[(3S)-3-aminopiperidin-1-yl]-6-methoxypyridin-3-yl}-7-ethylquinoline-2-carboxamide]
17 | ≤ 0.1 µM | ≤ 0.1 µM | > 2 µM | CCc1ccc2cc(N)c(C(=O)Nc3cncc(C#N)c3N3CCC[C@H](N)C3)nc2c1 [Example 32, 3-Amino-N-{4-[(3S)-3-aminopiperidin-1-yl]-5-cyanopyridin-3-yl}-7-ethylquinoline-2-carboxamide]
18 | ≤ 0.1 µM | ≤ 0.1 µM | 0.1 to 1 µM | C[C@H]1CN(c2ccncc2NC(=O)c2nc3cc(N4CCOCC4)ccc3cc2N)C[C@@H](N)[C@@H]1O [Example 33, 3-Amino-N-{4-[(3R,4R,5S)-3-amino-4-hydroxy-5-methylpiperidin-1-yl]pyridin-3-yl}-7-morpholin-4-ylquinoline-2-carboxamide]
19 | ≤ 0.1 µM | ≤ 0.1 µM | ≤ 0.1 µM | C[C@@H]1C[C@H](N)CN(c2ccncc2NC(=O)c2nc3cc(N4CCOCC4)ccc3cc2N)C1 [Example 34, 3-Amino-N-{4-[(3S,5R)-3-amino-5-methylpiperidin-1-yl]pyridin-3-yl}-7-morpholin-4-ylquinoline-2-carboxamide]
20 | ≤ 0.1 µM | ≤ 0.1 µM | 0.1 to 1 µM | Nc1cc2ccc(N3CCOCC3)cc2nc1C(=O)Nc1cnccc1N1C[C@@H](N)C[C@@H](C(F)(F)F)C1 [Example 35, 3-Amino-N-{4-[(3S,5R)-3-amino-5-(trifluoromethyl)piperidin-1-yl]pyridin-3-yl}-7-morpholin-4-ylquinoline-2-carboxamide]
21 | ≤ 0.1 µM | ≤ 0.1 µM | ≤ 0.1 µM | C[C@@H]1C[C@H](N)CN(c2ccncc2NC(=O)c2nc3cc(N4CCN(C)CC4)ccc3cc2N)C1 [Example 36, 3-Amino-N-{4-[(3S,5R)-3-amino-5-methylpiperidin-1-yl]pyridin-3-yl}-7-(4-methylpiperazin-1-yl)quinoline-2-carboxamide]
22 | ≤ 0.1 µM | ≤ 0.1 µM | 0.1 to 1 µM | CN1CCN(c2ccc3cc(N)c(C(=O)Nc4cnccc4N4C[C@@H](N)C[C@@H](C(F)(F)F)C4)nc3c2)CC1 [Example 37, 3-Amino-N-{4-[(3S,5R)-3-amino-5-(trifluoromethyl)piperidin-1-yl]pyridin-3-yl}-7-(4-methylpiperazin-1-yl)quinoline-2-carboxamide]
23 | ≤ 0.1 µM | ≤ 0.1 µM | ≤ 0.1 µM | C[C@H]1CN(c2ccncc2NC(=O)c2nc3cc(N4CCN(C)CC4)ccc3cc2N)C[C@@H](N)[C@@H]1O [Example 38, 3-Amino-N-{4-[(3R,4R,5S)-3-amino-4-hydroxy-5-methylpiperidin-1-yl]pyridin-3-yl}-7-(4-methylpiperazin-1-yl)quinoline-2-carboxamide]
